Values of other authors as cited in US20250194589A1, “AGROCHEMICAL EMULSIFIABLE COMPOSITION” (priority 2022, published 2025).
Where two headings read alike, the source gives them in different places.

Key:
[1] = not given; remark: listed apart in the source
[2] = measurement method: Flask shaking

Which Degree of water-solubility (25° C.) does the source give for Abamectin here?
Its Degree of water-solubility is 1210 ng/mL.

And the LogPow [1, 2]?
The LogPow was 4.4 ± 0.3.

For `Cc1c(COC(=O)[C@@H]2[C@H](/C=C(\Cl)C(F)(F)F)C2(C)C)cccc1-c1ccccc1` (racemic) [Bifenthrin], which Degree of water-solubility (20-25° C.) is on record?
Its Degree of water-solubility is less than 0.1 ng/mL.

What about the LogPow ([1]; measurement method: HPLC) of the same compound?
Its LogPow is 6.6.

For Milbemectin [Milbemectin (M.A3)], which Degree of water-solubility (20° C.) is on record?
Its Degree of water-solubility is 880 ng/mL.

What about the LogPow [1, 2] of the same compound?
Its LogPow is greater than 4.94.

With `COC(=O)N(C(=O)N1CO[C@@]2(C(=O)OC)Cc3cc(Cl)ccc3C2=N1)c1ccc(OC(F)(F)F)cc1` [Indoxacarb] as the compound, how does the Degree of water-solubility (25° C.) read?
Its Degree of water-solubility is 200 ng/mL.

And the LogPow [1, 2]?
The LogPow was 4.65.

Which LogPow ([1]; measurement method: HPLC) does the source give for `Clc1ccccc1-c1nnc(-c2ccccc2Cl)nn1` [Clofentezine] here?
Its LogPow is 4.1.

For `Cc1ccc(/N=C/N(C)/C=N/c2ccc(C)cc2C)c(C)c1` [Amitraz], which Degree of water-solubility (25° C.) is on record?
Its Degree of water-solubility is 94 ng/mL.

What about the LogPow ([1]; measurement method not printed) of the same compound?
Its LogPow is 5.5.

With `CCCCN(CCCC)SN(C)C(=O)Oc1cccc2c1OC(C)(C)C2` [Carbosulfan] as the compound, how does the Degree of water-solubility (25° C.) read?
Its Degree of water-solubility is 3000 ng/mL.

And the LogPow ([1]; measurement method not printed)?
The LogPow was 5.45.

For `O=C(NC(=O)c1c(F)cccc1F)Nc1cc(Cl)c(OC(F)(F)C(F)C(F)(F)F)cc1Cl` (stereo not drawn) [Lufenuron], which Degree of water-solubility (25° C.) is on record?
The Degree of water-solubility was less than 60 ng/mL.

What about the LogPow ([1]; measurement method: HPLC) of the same compound?
Its LogPow is 5.12.

Which Degree of water-solubility (25° C.) does the source give for Lepimectin here?
The Degree of water-solubility was 103.47 ng/mL.

What about the LogPow ([1]; measurement method: HPLC) of the same compound?
Its LogPow is 6.5.

Which Degree of water-solubility (20° C.) does the source give for `CCOc1cc(C(C)(C)C)ccc1C1COC(c2c(F)cccc2F)=N1` (stereo not drawn) [Etoxazole] here?
Its Degree of water-solubility is 70.4 ng/mL.

And the LogPow ([1]; measurement method not printed)?
The LogPow was 5.52 ± 0.58.

Which Degree of water-solubility (20° C.) does the source give for `Cc1nn(C)c(/C(OC(=O)C(C)(C)C)=C(\C#N)c2ccc(C(C)(C)C)cc2)c1C` [Cyenopyrafen] here?
Its Degree of water-solubility is 300 ng/mL.

And the LogPow ([1]; measurement method: HPLC)?
The LogPow was 5.6.

With `CC1(C)[C@H](C(=O)O[C@H](C#N)c2cccc(Oc3ccccc3)c2)[C@@H]1/C=C\C(=O)OC(C(F)(F)F)C(F)(F)F` [Acrinathrin] as the compound, how does the LogPow [1, 2] read?
Its LogPow is 5.6.

For `CCOc1ccc(C(C)(C)COCc2cccc(Oc3ccccc3)c2)cc1` [Etofenprox], which Degree of water-solubility (20° C.) is on record?
Its Degree of water-solubility is 22.5 ng/mL.

What about the LogPow ([1]; measurement method: HPLC) of the same compound?
Its LogPow is 6.9.

Which Degree of water-solubility (25° C.) does the source give for `ClC1=C(Cl)C(Cl)(C2(Cl)C(Cl)=C(Cl)C(Cl)=C2Cl)C(Cl)=C1Cl` [Dienochlor] here?
Its Degree of water-solubility is 26 ng/mL.

What about the LogPow ([1]; measurement method not printed) of the same compound?
The LogPow was 7.2.

What does the source list for `CCCOc1cc(C(F)(F)F)ccc1O[C@H]1C[C@H]2CCC[C@@H](C1)N2Oc1ccc(C(F)(F)F)cn1` [Acynonapyr]?
Degree of water-solubility (20° C.): 0.889 ng/mL; LogPow ([1]; measurement method not printed): 6.5

With `Cc1cc(C)c(C2=C(OC(=O)CC(C)(C)C)C3(CCCC3)OC2=O)c(C)c1` [Spiromesifen] as the compound, how does the Degree of water-solubility (20° C.) read?
The Degree of water-solubility was 130 ng/mL.

What about the LogPow ([1]; measurement method: HPLC) of the same compound?
Its LogPow is 4.55.

Which LogPow [1, 2] does the source give for `CCOC(=O)CCN(SN(C)C(=O)Oc1cccc2c1OC(C)(C)C2)C(C)C` [Benfuracarb] here?
Its LogPow is 4.22.

Which LogPow ([1]; measurement method not printed) does the source give for `C/C(=N\C#N)N(C)Cc1ccc(Cl)nc1` [Acetamiprid, acetamiprid] here?
The LogPow was “Acetamiprid (LogPow = 0.8)”.

And the LogPow ([1]; measurement method not printed, listed as acetamiprid)?
The LogPow was 0.8.

Which LogPow ([1]; measurement method not printed) does the source give for `CC(C)C(C(=O)OC(C#N)c1cccc(Oc2ccccc2)c1)c1ccc(Cl)cc1` (stereo not drawn) [Fenvalerate] here?
The LogPow was 6.53.

Which Degree of water-solubility (20° C.) does the source give for `CC1(C)C(/C=C(\Cl)C(F)(F)F)C1C(=O)OC(C#N)c1cccc(Oc2ccccc2)c1` (stereo not drawn) [Cyhalothrin] here?
Its Degree of water-solubility is 4.2 ng/mL.

And the LogPow ([1]; measurement method not printed)?
The LogPow was 6.9.

Which Degree of water-solubility (20° C.) does the source give for Milbemectin [Milbemectin (M.A4)] here?
The Degree of water-solubility was 7200 ng/mL.

What about the LogPow [1, 2] of the same compound?
The LogPow was greater than 5.06.

Which Degree of water-solubility (temperature not given) does the source give for Pyrethrin here?
The Degree of water-solubility was 9000 ng/mL.

What about the LogPow ([1]; measurement method not printed) of the same compound?
Its LogPow is 5.6.

For `CC(C)(C)c1ccc(CCOc2ncnc3ccccc23)cc1` [Fenazaquin], which LogPow ([1]; measurement method not printed) is on record?
Its LogPow is 5.71.

What does the source list for `CC(C)[C@H](Nc1ccc(C(F)(F)F)cc1Cl)C(=O)OC(C#N)c1cccc(Oc2ccccc2)c1` (stereo partly drawn) [Fluvalinate]?
Degree of water-solubility (20° C.): 1.12 ng/mL; LogPow [1, 2]: 4.26

Which Degree of water-solubility (20° C.) does the source give for `COC(c1ccc(N(C(=O)c2c(C)nn(C)c2C)C(=O)C(C)C)cc1CC(C)C)(C(F)(F)F)C(F)(F)F` [Pyflubumide] here?
The Degree of water-solubility was 270 ng/mL.

And the LogPow [1, 2]?
The LogPow was 5.34.

What does the source list for `CCC(C)(C)C(=O)OC1=C(c2ccc(Cl)cc2Cl)C(=O)OC12CCCCC2` [Spirodiclofen]?
Degree of water-solubility (20° C.): 50 ng/mL; LogPow [1, 2]: 5.83

With `Cc1c(F)c(F)c(COC(=O)[C@@H]2[C@H](/C=C(\Cl)C(F)(F)F)C2(C)C)c(F)c1F` (racemic) [Tefluthrin] as the compound, how does the LogPow ([1]; measurement method not printed) read?
The LogPow was 6.4.

With `CON=CNC(=O)c1ccc(C2=NOC(c3cc(Cl)cc(Cl)c3)(C(F)(F)F)C2)cc1C` (stereo not drawn) [Fluxametamide] as the compound, how does the Degree of water-solubility (20° C.) read?
The Degree of water-solubility was 54 ng/mL.

What about the LogPow ([1]; measurement method: HPLC) of the same compound?
Its LogPow is 5.0.

With `CC1(C)C(C=C(Cl)Cl)C1C(=O)OC(C#N)c1ccc(F)c(Oc2ccccc2)c1` (stereo not drawn) [Cyfluthrin] as the compound, how does the LogPow ([1]; measurement method not printed) read?
The LogPow was 6.00.

Which LogPow ([1]; measurement method: HPLC) does the source give for `CCOP(=O)(SC(C)CC)SC(C)CC` (stereo not drawn) [Cadusafos] here?
The LogPow was 4.08.

With `CCc1nn(C)c(C(=O)NCc2ccc(C(C)(C)C)cc2)c1Cl` [Tebufenpyrad] as the compound, how does the LogPow [1, 2] read?
Its LogPow is 4.93.

For `CCCSP(=S)(OCC)Oc1ccc(Cl)cc1Cl` (stereo not drawn) [Prothiofos], which LogPow [1, 2] is on record?
Its LogPow is 5.67.

With `FC(F)(F)c1ccc(OCCCOc2c(Cl)cc(OCC=C(Cl)Cl)cc2Cl)nc1` [Pyridalyl] as the compound, how does the Degree of water-solubility (25° C.) read?
Its Degree of water-solubility is 0.15 ng/mL.

And the LogPow ([1]; measurement method: HPLC)?
Its LogPow is 8.1.

For `COCCOC(=O)C(C#N)(C(=O)c1ccccc1C(F)(F)F)c1ccc(C(C)(C)C)cc1` (stereo not drawn) [Cyflumetofen], which LogPow ([1]; measurement method: HPLC) is on record?
Its LogPow is 4.3.

Which LogPow ([1]; measurement method not printed) does the source give for `CCCSP(=O)(OCC)Oc1ccc(Br)cc1Cl` (stereo not drawn) [Profenofos] here?
Its LogPow is 4.435.

Which LogPow [1, 2] does the source give for `CC1(C)C(C=C(Cl)Cl)C1C(=O)OCc1cccc(Oc2ccccc2)c1` (stereo not drawn) [Permethrin] here?
The LogPow was 6.36.

Which LogPow ([1]; measurement method not printed) does the source give for Emamectin benzoate here?
Its LogPow is 5.7.

For `O=C(NC(=O)c1c(F)cccc1F)Nc1ccc(OC(F)(F)C(F)OC(F)(F)F)c(Cl)c1` (stereo not drawn) [Novaluron], which Degree of water-solubility (20° C.) is on record?
Its Degree of water-solubility is 3 ng/mL.

And the LogPow ([1]; measurement method: HPLC)?
Its LogPow is 4.3.

With `CCOP(=S)(OCC)Oc1nc(Cl)c(Cl)cc1Cl` [Chlorpyrifos] as the compound, how does the Degree of water-solubility (25° C.) read?
The Degree of water-solubility was 941 ng/mL.

What about the LogPow [1, 2] of the same compound?
The LogPow was 4.70.

With `CCc1nn(C)c(C(=O)NCc2ccc(Oc3ccc(C)cc3)cc2)c1Cl` [Tolfenpyrad] as the compound, how does the Degree of water-solubility (25° C.) read?
The Degree of water-solubility was 87 ng/mL.

And the LogPow ([1]; measurement method not printed)?
Its LogPow is “Tolfenpyrad (LogPow = 5.61)”.

What about the LogPow ([1]; measurement method not printed, listed as tolfenpyrad) of the same compound?
The LogPow was 5.61.

And the LogPow [1, 2]?
The LogPow was 5.6.

Which LogPow ([1]; measurement method not printed) does the source give for `CC(C)[C@H](C(=O)OC(C#N)c1cccc(Oc2ccccc2)c1)c1ccc(OC(F)F)cc1` (stereo partly drawn) [Flucythrinate] here?
The LogPow was 4.74.
